Reference: patent publication US20260116845A1, “LIPIDS AND COMPOSITIONS THEREOF” (Kernal Biologics, Inc., priority 2023, published 2026)

Columns and labels:
AML12 Cell Line = assay: Transfection of AML12 Cell Line with FLuc mRNA LNPs (ONE-Glo EX luciferase signal); type: cell-based; conditions: 200 ng Fluc mRNA-LNP, 24 hours
How it was run: (§1)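 Firefly luciferase luminescence measured 24 h after transfection with 200 ng mRNA-LNP per well in Opti-MEM. Seeding: 5,000 cells/well for B16F10 and MC38.K, 20,000 for AML12. LNPs were pre-incubated 30 min with mouse serum; mRNA content determined by RiboGreen.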

B16F10 Cell Line = assay: Transfection of B16F10 Cell Line with FLuc mRNA LNPs (ONE-Glo EX luciferase signal); type: cell-based; conditions: 200 ng Fluc mRNA-LNP, 24 hours
How it was run: as §1

MC38.K Cell Line = assay: Transfection of MC38.K Cell Line with FLuc mRNA LNPs (ONE-Glo EX luciferase signal); type: cell-based; conditions: 200 ng Fluc mRNA-LNP, 24 hours; for Total Luciferin Signal (RLU) In Vitro - MC38.K: Table 4; for Total Luciferin Signal (RLU) In Vitro-MC38: Table 5
How it was run: as §1

Liver = assay: Ex-vivo luminescence signal from liver after IV Fluc mRNA LNPs in CD1 mice (IVIS); conditions: tail vein 1.0 mg/kg Day 0 and Day 2, imaging 18 hours after second dose; for Total Liver Tissue Luciferin Signal (Photons/s) Ex-vivo - CD1: Table 4; for Total Liver Tissue Luciferin Signal (Photons/s) In Vivo-Cd1: Table 5
hepatocytes = assay: Comparative study of fluoro v. non-fluoro compounds: Firefly Luciferase transfection efficiency; type: cell-based; conditions: Firefly Luciferase expression in hepatocytes; pairs Compound 54 v. 58 and Compound 68 v. 67
Text: Transfection efficiency was compared between three pairs of compounds, Compound 54 v. Compound 58, Compound 68 v. Compound 67, and Compound 37 v. Compound 61. For each pair, the compounds only differ on one fluoro-substitution at the end of an alkyl chain. For example, the structures of Compound 54 and Compound 58 are shown below:
In vitro and in vivo comparison of Firefly Luciferase expression data of fluoro v. non-fluoro compounds were obtained according to procedure similar to those in Example 3 and Example 7. […] Compound 58 and Compound 68 v. Compound 67 in hepatocytes.

Spleen = assay: Ex-vivo luminescence signal from spleen after IV Fluc mRNA LNPs in CD1 mice (IVIS); conditions: tail vein 1.0 mg/kg Day 0 and Day 2, imaging 18 hours after second dose, Table 5
C57BL/6 mice = assay: Multi-dose tolerability screening of NT-beta-Actin mRNA LNPs in MC38.K-inoculated C57BL/6 mice; type: in vivo; conditions: C57BL/6 mice with MC38.K, 1.0 mg/kg IV twice a week for two weeks; for adverse clinical observations / reduction in white blood cells and lymphocytes in the blood: compared to Compound 23 LNPs
Experimental: NT-beta-Actin mRNA LNPs with different ionizable lipids were administered IV to C57BL/6 mice, inoculated with MC38.K cells, via the tail vein for a total of four doses (twice a week for two consecutive weeks) at a concentration of 1.0 mg/kg. Bodyweights were monitored and blood was collected pre-dose, 24 hours post first dose, 24 hours post fourth dose, and analyzed for cytokines, blood chemistry, and liver/spleen weights. Compounds 23, 99 and 101 were formulated using a peripheral process method. C57BL/6 mice were inoculated with MC38.K cells. Once tumors had grown, 1.0 mg/kg (Beta-Actin mRNA) of each LNP was intravenously administered twice a week for two weeks. […] N=6 per group for bodyweights, N=3 for blood analysis. Mean+/−SD.

liver, tumor, and spleen = assay: Biodistribution of Fluc mRNA LNPs in MC38.K-inoculated Albino B6 mice (ex vivo luminescence); conditions: Albino B6 mice with MC38.K, 1.0 mg/kg IV, 18 hours
Experimental: Fluc mRNA LNPs were administered to Albino B6 mice, inoculated with MC38.K cells, via the tail vein at 1.0 mg/kg. Eighteen hours later, bioluminescence was measured using an IVIS Spectrum imager. Mice were treated with 150 mg/kg luciferin substrate administered via intraperitoneal injection. Afterwards, mice were euthanized, and the lung, liver, spleen, and tumor were harvested for ex vivo imaging. All procedures were conducted according to the approved IACUC guidelines. N=5 per group. Data analysis was performed in Graphpad Prism 10. Values are reported as mean+/−standard deviation, unless specified otherwise. Ex-Vivo luminescence of liver, tumor, and spleen organs after 1.0 mg/kg IV injection of Peripheral LNPs. N=4 mice per group. (Mean±SD, n=4/group).

`CCCCCCCCC(CCCCCCCC)OC(=O)CCCCCCCN(CCO)CCCCCCCOC(=O)CCCCCCCC=C(C)C` [Compound 54, 7-((8-(heptadecan-9-yloxy)-8-oxooctyl)(2-hydroxyethyl)amino)heptyl 10-methylundec-9-enoate] was tested, and the “Total Luciferin Signal (RLU) In Vitro - AML12” value (AML12 Cell Line; Table 4) was 1.05E+06 RLU, the “Total Luciferin Signal (RLU) In Vitro - B16F10” value (B16F10 Cell Line; Table 4) was 7.25E+05 RLU and the “Total Luciferin Signal (RLU) In Vitro - MC38.K” value (MC38.K Cell Line) was 5.12E+06 RLU. For the same compound, the “Total Liver Tissue Luciferin Signal (Photons/s) Ex-vivo - CD1” value (Liver) was 8.29E+09 Photons/s and the “difference in transfection efficiency within fluoro v. non-fluoro pair” value (hepatocytes) was “Statistically significant difference in transfection efficiency”.
`CCCCCCCCCOC(=O)CCCCCC1CN(CCOC(=O)CCN(C)C)CC(CCCCCC(=O)OC(CCCCCCCC)CCCCCCCC)O1` (stereo not drawn) [Compound 101, heptadecan-9-yl 6-(4-(2-((3-(dimethylamino)propanoyl)oxy)ethyl)-6-(6-(nonyloxy)-6-oxohexyl)morpholin-2-yl)hexanoate] was tested, and the “Total Luciferin Signal (RLU) In Vitro - AML12” value (AML12 Cell Line; Table 5) was 9.36E+04 RLU, the “Total Luciferin Signal (RLU) In Vitro - B16F10” value (B16F10 Cell Line; Table 5) was 6.73E+04 RLU and the “Total Luciferin Signal (RLU) In Vitro-MC38” value (MC38.K Cell Line) was 6.90E+05 RLU. The “Total Liver Tissue Luciferin Signal (Photons/s) In Vivo-Cd1” value (Liver) was 6.70E+08 Photons/s, the “Total Spleen Tissue Luciferin Signal (Photons/s) In Vivo-Cd1” value (from here on “Total Spleen Tissue Luciferin Signal”) (Spleen) was 1.57E+08 Photons/s and the tolerability (C57BL/6 mice) was “improved tolerability”. For the same compound, the adverse clinical observations (C57BL/6 mice) was “less adverse clinical observations” and the “reduction in white blood cells and lymphocytes in the blood” value (C57BL/6 mice) was “less of a reduction in white blood cells and lymphocytes”.
With `CCCCCCCC/C=C\CCCCCCC1CN(CCOC(=O)CCN(C)C)CC(CCCCCC(=O)OC(CCCCCCCC)CCCCCCC(C)C)O1` (stereo not drawn) [Compound 99, 2-methylheptadecan-9-yl (Z)-6-(4-(2-((3-(dimethylamino)propanoyl)oxy)ethyl)-6-(hexadec-7-en-1-yl)morpholin-2-yl)hexanoate] the “Total Luciferin Signal (RLU) In Vitro - AML12” value (AML12 Cell Line; Table 5) was 1.00E+05 RLU, the “Total Luciferin Signal (RLU) In Vitro - B16F10” value (B16F10 Cell Line; Table 5) was 5.27E+05 RLU and the “Total Luciferin Signal (RLU) In Vitro-MC38” value (MC38.K Cell Line) was 7.66E+04 RLU. For the same compound, the “Total Liver Tissue Luciferin Signal (Photons/s) In Vivo-Cd1” value (Liver) was 1.81E+09 Photons/s, the “Total Spleen Tissue Luciferin Signal” value (Spleen) was 2.78E+07 Photons/s and the tolerability (C57BL/6 mice) was “improved tolerability”. The adverse clinical observations (C57BL/6 mice) was “less adverse clinical observations”, the “reduction in white blood cells and lymphocytes in the blood” value (C57BL/6 mice) was “less of a reduction in white blood cells and lymphocytes” and the “expression in liver and spleen (ex-vivo luminescence)” value (liver, tumor, and spleen) was “significantly less expression”. The “expression in solid tumor tissue (ex-vivo luminescence)” value (liver, tumor, and spleen) was “nearly equivalent expression”.
With `CCCCCCCCC(CCCCCCCCF)OC(=O)CCCCCCCN(CCO)CCCCCCCC(=O)OCCCCCCCC=C(C)C` (stereo not drawn) [Compound 58, 1-fluoroheptadecan-9-yl 8-((2-hydroxyethyl)(8-((9-methyldec-8-en-1-yl)oxy)-8-oxooctyl)amino)octanoate] the “Total Luciferin Signal (RLU) In Vitro - AML12” value (AML12 Cell Line; Table 4) was 2.18E+06 RLU, the “Total Luciferin Signal (RLU) In Vitro - B16F10” value (B16F10 Cell Line; Table 4) was 4.03E+05 RLU and the “Total Luciferin Signal (RLU) In Vitro - MC38.K” value (MC38.K Cell Line) was 4.80E+06 RLU. The “Total Liver Tissue Luciferin Signal (Photons/s) Ex-vivo - CD1” value (Liver) was 9.65E+09 Photons/s and the “difference in transfection efficiency within fluoro v. non-fluoro pair” value (hepatocytes) was “Statistically significant difference in transfection efficiency”.
With `CCCCCCCC/C=C\CCCCCCC1CN(CCCOC(=O)CCN(C)C)CC(CCCCCC/C=C\CCCCCCCC)O1` (stereo not drawn) [Compound 96, 3-(2,6-di((Z)-hexadec-7-en-1-yl)morpholino)propyl 3-(dimethylamino)propanoate] the “Total Luciferin Signal (RLU) In Vitro - AML12” value (AML12 Cell Line; Table 5) was 1.49E+05 RLU, the “Total Luciferin Signal (RLU) In Vitro - B16F10” value (B16F10 Cell Line; Table 5) was 1.16E+05 RLU and the “Total Luciferin Signal (RLU) In Vitro-MC38” value (MC38.K Cell Line) was 1.25E+05 RLU. The “Total Liver Tissue Luciferin Signal (Photons/s) In Vivo-Cd1” value (Liver) was 4.34E+06 Photons/s and the “Total Spleen Tissue Luciferin Signal” value (Spleen) was 6.35E+06 Photons/s.
For `CCCCCCCCC(CCCCCCCCF)OC(=O)CCCCCCCN(CCCCO)CCCCCCC(C)C(=O)OCCCCCCCCC(C)C` (stereo not drawn) [Compound 67, 9-methyldecyl 8-((8-((1-fluoroheptadecan-9-yl)oxy)-8-oxooctyl)(4-hydroxybutyl)amino)-2-methyloctanoate], the “Total Luciferin Signal (RLU) In Vitro - AML12” value (AML12 Cell Line; Table 4) was 4.35E+06 RLU, the “Total Luciferin Signal (RLU) In Vitro - B16F10” value (B16F10 Cell Line; Table 4) was 2.75E+06 RLU and the “Total Luciferin Signal (RLU) In Vitro - MC38.K” value (MC38.K Cell Line) was 3.24E+07 RLU. For the same compound, the “Total Liver Tissue Luciferin Signal (Photons/s) Ex-vivo - CD1” value (Liver) was 5.31E+09 Photons/s and the “difference in transfection efficiency within fluoro v. non-fluoro pair” value (hepatocytes) was “Statistically significant difference in transfection efficiency”.
With `CCCCCCCCC(CCCCCCCC)OC(=O)CCCCCCCN(CCCCO)CCCCCCC(C)C(=O)OCCCCCCCCC(C)C` (stereo not drawn) [Compound 68, 9-methyldecyl 8-((8-(heptadecan-9-yloxy)-8-oxooctyl)(4-hydroxybutyl)amino)-2-methyloctanoate] the “Total Luciferin Signal (RLU) In Vitro - AML12” value (AML12 Cell Line; Table 4) was 2.89E+06 RLU, the “Total Luciferin Signal (RLU) In Vitro - B16F10” value (B16F10 Cell Line; Table 4) was 2.83E+06 RLU and the “Total Luciferin Signal (RLU) In Vitro - MC38.K” value (MC38.K Cell Line) was 1.60E+07 RLU. The “Total Liver Tissue Luciferin Signal (Photons/s) Ex-vivo - CD1” value (Liver) was 1.06E+10 Photons/s and the “difference in transfection efficiency within fluoro v. non-fluoro pair” value (hepatocytes) was “Statistically significant difference in transfection efficiency”.
In the case of `CCCCCCCC/C=C\CCCCCCC1CN(CCOC(=O)CCCN(C)C)CC(CCCCCC(=O)OC(CCCCCCCC)CCCCCCCC)O1` (stereo not drawn) [Compound 94, heptadecan-9-yl (Z)-6-(4-(2-((4-(dimethylamino)butanoyl)oxy)ethyl)-6-(hexadec-7-en-1-yl)morpholin-2-yl)hexanoate], the “Total Luciferin Signal (RLU) In Vitro - AML12” value (AML12 Cell Line; Table 5) is reported as 1.41E+06 RLU, the “Total Luciferin Signal (RLU) In Vitro - B16F10” value (B16F10 Cell Line; Table 5) is reported as 2.82E+06 RLU and the “Total Luciferin Signal (RLU) In Vitro-MC38” value (MC38.K Cell Line) is reported as 1.75E+06 RLU. The “Total Liver Tissue Luciferin Signal (Photons/s) In Vivo-Cd1” value (Liver) was 1.30E+07 Photons/s and the “Total Spleen Tissue Luciferin Signal” value (Spleen) was 1.22E+07 Photons/s.
